Reference: EP2769722A1 (Ruprecht-Karls-Universität Heidelberg, priority 2013, dated 2014)
Where a name gives a salt, the structure may show the parent alone.

Each molecule was assayed against T1, CA (Human immunodeficiency virus type 1 group M subtype B, UniProt P12493) (assay: AlphaScreen: inhibition of CAI-biotin peptide binding to CA-GST). Details: inhibition of CAI binding to CA (CA-GST fusion); compounds screened at 0.5-100 µM; read-out: α screen IC50.
T1 construct: a fusion protein of CA with glutathione-S-transferase (CA-GST)
Set-up: species or system HIV-1
Description: The AlphaScreen experiments are performed using Perkin Elmer Enspire plate reader in white 96-well ProxiPlates and PBS supplemented with 0.05% Tween20, 2mM DTT, 2% DMSO. First, Streptavidin-coated Donor beads are used to capture the CAI-biotin peptide. In the other solution, a fusion protein of CA with glutathione-S-transferase (CA-GST) is mixed with GSH Acceptor beads. Both mixtures were incubated and then mixed together. To test the ability of prepared organic compounds to inhibit the CAI binding to CA, they are screened at concentrations between 0.5-100 µM and IC50 values are calculated from the influenced signals.
Upon illumination by laser at 680 nm, Donor beads containing the photosensitizer phthalocyanine convert ambient oxygen to an excited form of singlet oxygen ^1O2. Singlet oxygen can within its half-life of ∼ 4µs diffuse approximately 200 nm in solution. If an Acceptor bead is within that proximity, which is mostly upon CA:CAI interaction, energy is transferred from the singlet oxygen to thioxene derivates within the Acceptor and signal at 520 - 620 nm is emitted. […] Table 4: Synthesized and tested compounds

Compared with CCOC(=O)c1ccc(Nc2ccnc(-c3cccnc3)n2)cc1 [AMR-722, ethyl4-((2-(pyridin-3-yl)pyrimidin-4-yl)amino)benzoate hydrochloride], CC(=O)c1ccc(Nc2ccnc(-c3cccnc3)n2)cc1 [AMR-725, 1.-(4-((2-(pyridin-3-yl)pyrimidin-4-yl)amino)phenyl)ethanone hydrochloride] is 2.8-fold higher in IC50: 19 µM for the first, 53 µM for the second.

First: CC(=O)c1cccc(Nc2ccnc(-c3cccnc3)n2)c1 [AMR-726, 1-(3-((2-(pyridin-3-yi)pyrimidin-4-yl)amino)phenyl)ethanone hydrochloride]
Second: CC(=O)c1cccc(Nc2cc(C)nc(-c3cccnc3)n2)c1 [AMR-830, 1-(3-((6-methyl-2-(pyridin-3-yl)pyrimidin-4-yl)amino)phenyl)ethanone hydrochloride]
The IC50 of the first is 3.9-fold higher: 39 µM for the first, 10 µM for the second. The second is the more potent here.

CCOC(=O)c1ccc(Nc2cc(C(F)(F)F)nc(-c3cccnc3)n2)cc1 [AMR-742, ethyl 4-((2-(pyridin-3-yl)-6-(trifluoromethyl)pyrimidin-4-yl)amino)benzoate hydrochloride] and CC(=O)c1ccc(Nc2cc(C(F)(F)F)nc(-c3cccnc3)n2)cc1 [AMR-743, 1-(4-((2-(pyridin-3-yl)-6-(trifluoromethyl)pyrimidin-4-yl)amino)phenyl)ethanone hydrochloride] cannot be ordered by IC50: over 100 µM for the first, over 100 µM for the second.

Going from CCOC(=O)c1ccc(Nc2ccnc(-c3ccncc3)n2)cc1 [AMR-747, ethyl 4-((2-(pyridin-4-yl)pyrimidin-4-yl)amino)benzoate hydrochloride] to CC(=O)c1ccc(Nc2ccnc(-c3ccncc3)n2)cc1 [AMR-748, 1-(4-((2-(pyridin-4-yl)pyrimidin-4-yl)amino)phenyl)ethanone hydrochloride], the IC50 rises from 28 µM to over 100 µM.

FCCNc1ccnc(-c2ccncc2)n1 [AMR-758, N-(2-fluoroethyl)-2-(pyridin-4-yl)pyrimidin-4-amine hydrochloride] and O=C(NCCF)c1ccc(Nc2ccnc(-c3ccncc3)n2)cc1 [AMR-763, N-(2-fluoroethyl)-4-((2-(pyridin-4-yl)pyrimidin-4-yl)amino)benzamide hydrochloride] cannot be ordered by IC50: over 100 µM for the first, over 100 µM for the second.

Compared with CCOC(=O)c1cccc(Nc2ccnc(-c3ccncc3)n2)c1 [AMR-759, ethyl 3-((2-(pyridin-4-yl)pyrimidin-4-yl)amino)benzoate hydrochloride], CCOC(=O)c1ccc(Nc2ccnc(-c3cccnc3)n2)c(F)c1 [AMR-823, ethyl 3-fluoro-4-((2-(pyridin-3-yl)pyrimidin-4-yl)amino)benzoate hydrochloride] is lower in IC50: over 100 µM for the first, 30 µM for the second.

Going from O=C(NCC(F)(F)F)c1ccc(Nc2ccnc(-c3cccnc3)n2)cc1 [AMR-771, 4-((2-(pyridin-3-yl)pyrimidin-4-yl)amino)-N-(2,2,2-trifluoroethyl)benzamide hydrochloride] to O=C(NCCF)c1ccc(Nc2ccnc(-c3cccnc3)n2)cc1 [AMR-792, N-(2-fluoroethyl)-4-((2-(pyridin-3-yl)pyrimidin-4-yl)amino)benzamide hydrochloride], the IC50 falls from 55 µM to 34 µM (1.6-fold). The second is the more potent here.

Compared with CCOC(=O)c1ccc(Nc2cc(C)nc(-c3cccnc3)n2)cc1 [AMR-778, ethyl 4-((6-methyl-2-pyridin-3-yl)pyrimidin-4-yl)amino)benzoate hydrochloride], CC(=O)c1ccc(Nc2cc(C)nc(-c3cccnc3)n2)cc1 [AMR-794, 1-(4-((6-methyl-2-(pyridin-3-yl)pyrimidin-4-yl)amino)phenyl)ethanone hydrochloride] is 1.8-fold lower in IC50: 21 µM for the first, 12 µM for the second.

First: Cc1cc(Nc2ccc(C(=O)NCCF)cc2)nc(-c2cccnc2)n1 [AMR-795, N-(2-fluoroethyl)-4-((6-methyl-2-(pyridin-3-yl)pyrimidin-4-yl)amino)benzamide hydrochloride]
Second: Cc1cc(Nc2ccc(C(=O)NCCF)c(F)c2)nc(-c2cccnc2)n1 [AMR-828, 2-fluoro-N-(2-fluoroethyl)-4-((6-methyl-2-(pyridin-3-yl)pyrimidin-4-yl)amino)benzamide hydrochloride]
The IC50 of the first is 2.7-fold higher: 8 µM for the first, 3 µM for the second.

Compared with O=C(O)c1ccc(Nc2ccnc(-c3cccnc3)n2)cc1Cl [AMR-802, 2-chloro-4-((2-(pyridin-3-yl)pyrimidin-4-yl)amino)benzoic acid hydrochloride], Fc1ccc(Nc2ccnc(-c3cccnc3)n2)cc1F [KP-343, N-(3,4-difluorophenyl)-2-(pyridin-3-yl)pyrimidin-4-amine dihydrochloride] is 1.5-fold higher in IC50: 25 µM for the first, 38 µM for the second.

Going from O=C(NCCF)c1cc(Nc2ccnc(-c3cccnc3)n2)ccc1F [AMR-816, 2-fluoro-N-(2-fluoroethyl)-5-((2-(pyridin-3-yl)pyrimidin-4-yl)amino)benzamide dihydrochloride] to O=C(NCCF)c1ccc(Nc2ccnc(-c3cccnc3)n2)cc1F [AMR-831, 2-fluoro-N-(2-fluoroethyl)-4-((2-(pyridin-3-yl)pyrimidin-4-yl)amino)benzamide hydrochloride], the IC50 falls from 68 µM to 43 µM (1.6-fold). The second is the more potent here.

CCN(CC)CCNC(=O)c1ccc(Nc2ccnc(-c3cccnc3)n2)cc1 [AMR-822, N-(2-(diethylamino)ethyl)-4-((2-(pyridin-3-yl)pyrimidin-4-yl)amino)benzamide dihydrochloride] and CCN(CC)CCOC(=O)c1ccc(Nc2ccnc(-c3cccnc3)n2)cc1F [AMR-827, 2-(diethylamino)ethyl 2-fluoro-4-{(2-(pyridin-3-yl)pyrimidin-4-yl)amino)benzoate hydrochloride] cannot be ordered by IC50: over 100 µM for the first, over 100 µM for the second.

Compared with O=C(NCCF)c1ccc(Nc2ccnc(-c3cccnc3)n2)c(F)c1 [AMR-825, 3-fluoro-N-(2-fluoroethyl)-4-((2-(pyridin-3-yl)pyrimidin-4-yl)amino)benzamide hydrochloride], Cc1cc(Nc2ccc(C(=O)NCCF)cc2F)nc(-c2cccnc2)n1 [AMR-829, 3-fluoro-N-(2-fluoroethyl)-4-((6-methyl-2-(pyridin-3-yl)pyrimidin-4-yl)amino)benzamide hydrochloride] is 4.9-fold lower in IC50: 73 µM for the first, 15 µM for the second.

Going from Cc1cc(Nc2cc(C(=O)NCCF)ccc2F)nc(-c2cccnc2)n1 [AMR-832, 4-fluoro-N-(2-fluoroethyl)-3-((6-methyl-2-(pyrldin-3-yl)pyrimidin-4-yl)amino)benzamide hydrochloride] to CC(=O)c1ccc(F)c(Nc2cc(C)nc(-c3cccnc3)n2)c1 [AMR-838, 1-(4-fluoro-3-((6-methyl-2-(pyridin-3-yl)pyrimidin-4-yl)amino)phenyl)ethanone hydrochloride], the IC50 rises from 52 µM to over 100 µM. The first is the more potent here.

Going from CC(=O)c1cc(Nc2cc(C)nc(-c3cccnc3)n2)ccc1F [AMR-839, 1-(2-fluoro-5-((6-methyl-2-(pyridin-3-yl)pyrimidin-4-yl)amino)phenyl)ethanone hydrochloride] to Fc1cc(Nc2ccnc(-c3cccnc3)n2)cc(F)c1F [KP-351, N-(3,4,5-trifluorophenyl)-2-(pyridin-3-yl)pyrimidin-4-amine dihydrochloride], the IC50 rises from 9 µM to 60 µM (6.7-fold). The first is the more potent here.

CCOC(=O)c1ccccc1Nc1ccnc(-c2cccnc2)n1 [KP-347, Ethyl 2-{[2-(pyridm-3-yl)pyrimidm-4-yl]amino}benzoate hydrochloride] and CCOC(=O)c1ccc(Nc2ccnc(-c3cncc(Br)c3)n2)cc1 [KP-352, Ethyl 4-{[2-(5-bromopyridin-3-yl)pyrinudm-4-yl]amino}benzoate hydrochloride] cannot be ordered by IC50: over 100 µM for the first, over 100 µM for the second.
